{"source": "patent US11117900B2", "about": "(Vertex Pharmaceuticals Incorporated, priority 2012, dated 2021)"}
{"tested_on": "HCT116 colorectal cancer cells", "assay": "Cisplatin sensitization assay (96 h MTS cell viability);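 also: compound concentration needed to lower the IC50 of Cisplatin alone by a set fold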", "format": "cell-based", "conditions": "Cisplatin sensitization value", "summary_of_the_method": "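The MTS viability read, after 1 h with reagent, followed 96 h of co-treatment at 37° C. in 5% CO2. Both compound and cisplatin were titrated 2-fold from a 10 μM top final concentration in a complete concentration matrix on HCT116 cells. Scores +++/++/+ reflect cisplatin sensitization value ranges.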"}
{"compound": "CN1CCC(S(=O)(=O)N2CCN(c3ccncc3NC(=O)c3c(N)nn4cc(F)cnc34)CC2)CC1", "note": "[I-N-188, 2-amino-6-fluoro-N-(4-(4-((1-methylpiperidin-4-yl)sulfonyl)piperazin-1-yl)pyridin-3-yl)pyrazolo[1,5-a]pyrimidine-3-carboxamide]", "Cisplatin Sensitization Assay": "+++ (Compounds with a Cisplatin sensitization value of <0.02 μM are marked with “+++.”)"}
{"compound": "Nc1nn2cc(F)cnc2c1C(=O)Nc1cncc(F)c1N1CCC(N2CCOCC2)CC1", "note": "[I-N-189, 2-amino-6-fluoro-N-(5-fluoro-4-(4-morpholinopiperidin-1-yl)pyridin-3-yl)pyrazolo[1,5-a]pyrimidine-3-carboxamide]", "Cisplatin Sensitization Assay": "+++ (Compounds with a Cisplatin sensitization value of <0.02 μM are marked with “+++.”)"}
{"compound": "CS(=O)(=O)C1CCN(c2ccncc2NC(=O)c2c(N)nn3cc(F)cnc23)CC1", "note": "[I-N-190, 2-amino-6-fluoro-N-(4-(4-(methylsulfonyl)piperidin-1-yl)pyridin-3-yl)pyrazolo[1,5-a]pyrimidine-3-carboxamide]", "Cisplatin Sensitization Assay": "+++ (Compounds with a Cisplatin sensitization value of <0.02 μM are marked with “+++.”)"}
{"compound": "CN1CCN(C(=O)C2CCN(c3c(F)cncc3NC(=O)c3c(N)nn4cc(F)cnc34)C2)CC1", "note": "(centres unmarked) [I-N-191, 2-amino-6-fluoro-N-(5-fluoro-4-(3-(4-methylpiperazine-1-carbonyl)pyrrolidin-1-yl)pyridin-3-yl)pyrazolo[1,5-a]pyrimidine-3-carboxamide]", "Cisplatin Sensitization Assay": "+ (Compounds with a Cisplatin sensitization value >0.2 μM but <5 μM are marked with “+.”)"}
{"compound": "CN1CCN(CC2CCN(c3c(F)cncc3NC(=O)c3c(N)nn4cc(C5(C#N)CC5)cnc34)CC2)CC1", "note": "[I-N-192, 2-amino-6-(1-cyanocyclopropyl)-N-(5-fluoro-4-(4-((4-methylpiperazin-1-yl)methyl)piperidin-1-yl)pyridin-3-yl)pyrazolo[1,5-a]pyrimidine-3-carboxamide]", "Cisplatin Sensitization Assay": "+++ (Compounds with a Cisplatin sensitization value of <0.02 μM are marked with “+++.”)"}
{"compound": "CN1CCN(CC2CCN(c3c(F)cncc3NC(=O)c3c(N)nn4cc(F)cnc34)CC2)C(=O)C1", "note": "[I-N-193, 2-amino-6-fluoro-N-(5-fluoro-4-(4-((4-methyl-2-oxopiperazin-1-yl)methyl)piperidin-1-yl)pyridin-3-yl)pyrazolo[1,5-a]pyrimidine-3-carboxamide]", "Cisplatin Sensitization Assay": "+++ (Compounds with a Cisplatin sensitization value of <0.02 μM are marked with “+++.”)"}
{"compound": "CN1CC(C(=O)N2CCN(c3c(F)cncc3NC(=O)c3c(N)nn4cc(F)cnc34)CC2)C1", "note": "[I-N-194]", "Cisplatin Sensitization Assay": "+++ (Compounds with a Cisplatin sensitization value of <0.02 μM are marked with “+++.”)"}
{"compound": "Nc1nn2cc(F)cnc2c1C(=O)Nc1cnccc1N1CCN(S(=O)(=O)C2COC2)CC1", "note": "[I-N-195, 2-amino-6-fluoro-N-(4-(4-(oxetan-3-ylsulfonyl)piperazin-1-yl)pyridin-3-yl)pyrazolo[1,5-a]pyrimidine-3-carboxamide]", "Cisplatin Sensitization Assay": "+++ (Compounds with a Cisplatin sensitization value of <0.02 μM are marked with “+++.”)"}
{"compound": "Nc1nn2cc(F)cnc2c1C(=O)Nc1cnccc1N1CCC(S(=O)(=O)N2CCN3CCC2CC3)CC1", "note": "[I-N-196, N-(4-(4-(1,4-diazabicyclo[3.2.2]nonan-4-ylsulfonyl)piperidin-1-yl)pyridin-3-yl)-2-amino-6-fluoropyrazolo[1,5-a]pyrimidine-3-carboxamide]", "Cisplatin Sensitization Assay": "+++ (Compounds with a Cisplatin sensitization value of <0.02 μM are marked with “+++.”)"}
{"compound": "Nc1nn2cc(F)cnc2c1C(=O)Nc1cnccc1N1CCC(CN2CCC(F)(F)C2)CC1", "note": "[I-N-197, 2-amino-N-(4-(4-((3,3-difluoropyrrolidin-1-yl)methyl)piperidin-1-yl)pyridin-3-yl)-6-fluoropyrazolo[1,5-a]pyrimidine-3-carboxamide]", "Cisplatin Sensitization Assay": "+++ (Compounds with a Cisplatin sensitization value of <0.02 μM are marked with “+++.”)"}
{"compound": "CN1CCC[C@H]1C(=O)N1CCN(c2ccncc2NC(=O)c2c(N)nn3cc(F)cnc23)CC1", "note": "[I-N-198, (S)-2-amino-6-fluoro-N-(4-(4-(1-methylpyrrolidine-2-carbonyl)piperazin-1-yl)pyridin-3-yl)pyrazolo[1,5-a]pyrimidine-3-carboxamide]", "Cisplatin Sensitization Assay": "++ (Compounds with a Cisplatin sensitization value >0.02 μM but <0.2 μM are marked with “++.”)"}
{"compound": "CN1CCC[C@@H]1C(=O)N1CCN(c2ccncc2NC(=O)c2c(N)nn3cc(F)cnc23)CC1", "note": "[I-N-199, (R)-2-amino-6-fluoro-N-(4-(4-(1-methylpyrrolidine-2-carbonyl)piperazin-1-yl)pyridin-3-yl)pyrazolo[1,5-a]pyrimidine-3-carboxamide]", "Cisplatin Sensitization Assay": "+++ (Compounds with a Cisplatin sensitization value of <0.02 μM are marked with “+++.”)"}
{"compound": "Nc1nn2cc(F)cnc2c1C(=O)Nc1cnccc1N1CCC(S(=O)(=O)C2COC2)CC1", "note": "[I-N-200, 2-amino-6-fluoro-N-(4-(4-(oxetan-3-ylsulfonyl)piperidin-1-yl)pyridin-3-yl)pyrazolo[1,5-a]pyrimidine-3-carboxamide]", "Cisplatin Sensitization Assay": "+++ (Compounds with a Cisplatin sensitization value of <0.02 μM are marked with “+++.”)"}
{"compound": "Nc1nn2cc(F)cnc2c1C(=O)Nc1cncc(F)c1N1CCN(S(=O)(=O)C2COC2)CC1", "note": "[I-N-201]", "Cisplatin Sensitization Assay": "+++ (Compounds with a Cisplatin sensitization value of <0.02 μM are marked with “+++.”)"}
{"compound": "Nc1nn2cc(F)cnc2c1C(=O)Nc1cncc(F)c1N1CCN(C(=O)C2CC3CCCCN3C2)CC1", "note": "(centres unmarked) [I-N-203, 2-amino-6-fluoro-N-(5-fluoro-4-(4-(octahydroindolizine-2-carbonyl)piperazin-1-yl)pyridin-3-yl)pyrazolo[1,5-a]pyrimidine-3-carboxamide]", "Cisplatin Sensitization Assay": "+++ (Compounds with a Cisplatin sensitization value of <0.02 μM are marked with “+++.”)"}
{"compound": "CC(C)N1CCCC1C(=O)N1CCN(c2c(F)cncc2NC(=O)c2c(N)nn3cc(F)cnc23)CC1", "note": "(centres unmarked) [I-N-205, 2-amino-6-fluoro-N-(5-fluoro-4-(4-(1-isopropylpyrrolidine-2-carbonyl)piperazin-1-yl)pyridin-3-yl)pyrazolo[1,5-a]pyrimidine-3-carboxamide]", "Cisplatin Sensitization Assay": "++ (Compounds with a Cisplatin sensitization value >0.02 μM but <0.2 μM are marked with “++.”)"}
{"compound": "CC(C)N1CCC(C(=O)N2CCN(c3c(F)cncc3NC(=O)c3c(N)nn4cc(F)cnc34)CC2)C1", "note": "(centres unmarked) [I-N-206, 2-amino-6-fluoro-N-(5-fluoro-4-(4-(1-isopropylpyrrolidine-3-carbonyl)piperazin-1-yl)pyridin-3-yl)pyrazolo[1,5-a]pyrimidine-3-carboxamide]", "Cisplatin Sensitization Assay": "+++ (Compounds with a Cisplatin sensitization value of <0.02 μM are marked with “+++.”)"}
{"compound": "COCCS(=O)(=O)C1CCN(c2ccncc2NC(=O)c2c(N)nn3cc(F)cnc23)CC1", "note": "[I-N-208, 2-amino-6-fluoro-N-(4-(4-((2-methoxyethyl)sulfonyl)piperidin-1-yl)pyridin-3-yl)pyrazolo[1,5-a]pyrimidine-3-carboxamide]", "Cisplatin Sensitization Assay": "+++ (Compounds with a Cisplatin sensitization value of <0.02 μM are marked with “+++.”)"}
{"compound": "CN1CCN(c2ccncc2NC(=O)c2c(N)nn3cc(F)cnc23)CC1=O", "note": "[I-N-209, 2-amino-6-fluoro-N-(4-(4-methyl-3-oxopiperazin-1-yl)pyridin-3-yl)pyrazolo[1,5-a]pyrimidine-3-carboxamide]", "Cisplatin Sensitization Assay": "+++ (Compounds with a Cisplatin sensitization value of <0.02 μM are marked with “+++.”)"}
{"compound": "Nc1nn2cc(F)cnc2c1C(=O)Nc1cnccc1N1CCS(=O)(=O)CC1", "note": "[I-N-210, 2-amino-N-(4-(1,1-dioxidothiomorpholino)pyridin-3-yl)-6-fluoropyrazolo[1,5-a]pyrimidine-3-carboxamide]", "Cisplatin Sensitization Assay": "+++ (Compounds with a Cisplatin sensitization value of <0.02 μM are marked with “+++.”)"}
{"compound": "Nc1nn2cc(F)cnc2c1C(=O)Nc1cncc(F)c1N1CCN(C(=O)C2CCN(C3COC3)CC2)CC1", "note": "[I-N-211, 2-amino-6-fluoro-N-(5-fluoro-4-(4-(1-(oxetan-3-yl)piperidine-4-carbonyl)piperazin-1-yl)pyridin-3-yl)pyrazolo[1,5-a]pyrimidine-3-carboxamide]", "Cisplatin Sensitization Assay": "++ (Compounds with a Cisplatin sensitization value >0.02 μM but <0.2 μM are marked with “++.”)"}
{"compound": "CN1CCN(c2c(F)cncc2NC(=O)c2c(N)nn3cc(F)cnc23)CC1=O", "note": "[I-N-212, 2-amino-6-fluoro-N-(5-fluoro-4-(4-methyl-3-oxopiperazin-1-yl)pyridin-3-yl)pyrazolo[1,5-a]pyrimidine-3-carboxamide]", "Cisplatin Sensitization Assay": "+++ (Compounds with a Cisplatin sensitization value of <0.02 μM are marked with “+++.”)"}
{"compound": "Nc1nn2cc(F)cnc2c1C(=O)Nc1cncc(F)c1N1CCC(CN2CCCC2=O)CC1", "note": "[I-N-213, 2-amino-6-fluoro-N-(5-fluoro-4-(4-((2-oxopyrrolidin-1-yl)methyl)piperidin-1-yl)pyridin-3-yl)pyrazolo[1,5-a]pyrimidine-3-carboxamide]", "Cisplatin Sensitization Assay": "+++ (Compounds with a Cisplatin sensitization value of <0.02 μM are marked with “+++.”)"}
{"compound": "CN1CCCCC1C(=O)N1CCN(c2c(F)cncc2NC(=O)c2c(N)nn3cc(F)cnc23)CC1", "note": "(centres unmarked) [I-N-214, 2-amino-6-fluoro-N-(5-fluoro-4-(4-(1-methylpiperidine-2-carbonyl)piperazin-1-yl)pyridin-3-yl)pyrazolo[1,5-a]pyrimidine-3-carboxamide]", "Cisplatin Sensitization Assay": "++ (Compounds with a Cisplatin sensitization value >0.02 μM but <0.2 μM are marked with “++.”)"}
{"compound": "CS(=O)(=O)CC1CCN(c2ccncc2NC(=O)c2c(N)nn3cc(F)cnc23)CC1", "note": "[I-N-215, 2-amino-6-fluoro-N-(4-(4-((methylsulfonyl)methyl)piperidin-1-yl)pyridin-3-yl)pyrazolo[1,5-a]pyrimidine-3-carboxamide]", "Cisplatin Sensitization Assay": "+++ (Compounds with a Cisplatin sensitization value of <0.02 μM are marked with “+++.”)"}
{"compound": "CN1CC2(CCN(c3ccncc3NC(=O)c3c(N)nn4cc(F)cnc34)CC2)OC1=O", "note": "[I-N-216, 2-amino-6-fluoro-N-(4-(3-methyl-2-oxo-1-oxa-3,8-diazaspiro[4.5]decan-8-yl)pyridin-3-yl)pyrazolo[1,5-a]pyrimidine-3-carboxamide]", "Cisplatin Sensitization Assay": "+++ (Compounds with a Cisplatin sensitization value of <0.02 μM are marked with “+++.”)"}
